According to patent EP4653444A1, “FUSED TRICYCLIC COMPOUND AS KINASE INHIBITOR” (Hangzhou Innogate Pharma Co., Ltd., priority 2023, dated 2024):
Like-named read-outs stand apart in the source and are kept apart here.

Legend:
HPK1 kinase = HPK1 kinase (Homo sapiens, UniProt Q92918); test: HPK1 kinase activity inhibition assay (Mobility shift assay); format: biochemical
Description: Measure compound inhibitory activity against HPK1 kinase using Mobility shift assay. Compounds were dissolved in 100% DMSO to prepare 10 mM stock solutions. 1× Kinase buffer was prepared. Test compounds were serially diluted in 5-fold gradients, and 250 nL of 100× final concentration compounds were transferred to destination plate 3573 using an Echo 550 liquid handler. A 2.5× final concentration kinase solution was prepared in 1× Kinase Buffer. 10 µL of the 2.5× kinase solution was added to both compound wells and positive control wells, while 10 µL of 1× Kinase buffer was added to negative control wells. The plate was centrifuged at 1000 rpm for 30 seconds, mixed by orbital shaking, and incubated at room temperature for 10 minutes. A 5/3× final concentration mixture of ATP and Kinase substrate 25 was prepared in 1× Kinase buffer. 15 µL of the 5/3× ATP/substrate mixture was added to initiate the reaction. The 384-well plate was centrifuged at 1000 rpm for 30 seconds, mixed by shaking, and incubated at room temperature for 120 minutes. The kinase reaction was terminated by adding 30 µL stop solution, followed by centrifugation at 1000 rpm for 30 seconds and mixing. Conversion rates were measured using a Caliper EZ Reader. The inhibition percentage was calculated as: %Inhibition = (Conversion%_max - Conversion%_sample)/(Conversion%_max - Conversion%_min) × 100. Where Conversion%_sample: Conversion rate reading of test samples; Conversion%_min: Mean value of negative control wells (representing conversion rate without enzyme activity); Conversion%_max: Mean value of positive control wells (representing conversion rate without compound inhibition). Dose-response curves were plotted with log(concentration) as the X-axis and percentage inhibition as the Y-axis. Curve fitting was performed using GraphPad Prism 5 software with the "log(inhibitor) vs. response - Variable slope" model to derive IC50 values for each compound's enzyme inhibitory activity. The fitting formula was: Y = Bottom + (Top - Bottom)/(1 + 10^((LogIC50 - X) × HillSlope)).

AXL = target: T1, AXL (Homo sapiens, UniProt P30530); test: AXL kinase activity inhibition assay (Mobility shift assay); format: biochemical
T1 sequence (P30530 26-894): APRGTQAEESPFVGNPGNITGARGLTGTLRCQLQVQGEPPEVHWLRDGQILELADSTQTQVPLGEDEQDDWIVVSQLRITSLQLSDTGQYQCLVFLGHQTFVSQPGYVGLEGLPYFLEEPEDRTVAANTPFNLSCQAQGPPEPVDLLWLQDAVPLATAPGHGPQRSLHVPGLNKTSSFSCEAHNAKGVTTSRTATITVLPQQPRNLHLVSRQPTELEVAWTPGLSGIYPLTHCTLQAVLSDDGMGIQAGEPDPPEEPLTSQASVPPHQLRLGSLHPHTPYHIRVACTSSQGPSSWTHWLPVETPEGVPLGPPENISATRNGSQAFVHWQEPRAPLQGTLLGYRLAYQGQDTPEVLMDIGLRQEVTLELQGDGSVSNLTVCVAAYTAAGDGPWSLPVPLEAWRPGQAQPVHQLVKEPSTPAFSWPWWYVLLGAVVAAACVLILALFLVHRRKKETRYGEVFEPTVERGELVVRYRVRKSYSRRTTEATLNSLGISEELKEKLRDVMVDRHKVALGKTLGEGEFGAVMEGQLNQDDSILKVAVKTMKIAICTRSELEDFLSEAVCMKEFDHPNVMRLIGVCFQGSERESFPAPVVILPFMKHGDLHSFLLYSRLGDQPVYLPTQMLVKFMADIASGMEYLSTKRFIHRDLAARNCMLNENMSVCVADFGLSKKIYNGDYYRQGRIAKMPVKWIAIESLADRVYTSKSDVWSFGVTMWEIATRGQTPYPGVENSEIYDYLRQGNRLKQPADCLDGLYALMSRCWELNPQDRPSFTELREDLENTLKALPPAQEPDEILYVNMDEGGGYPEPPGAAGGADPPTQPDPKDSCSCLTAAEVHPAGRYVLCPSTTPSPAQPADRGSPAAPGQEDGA
Description: Testing compound inhibitory activity against FLT3 and AXL kinases using Mobility shift assay. Compounds were dissolved in 100% DMSO to prepare 10 mM stock solutions. Prepare 1× Kinase Buffer. Test compounds were serially diluted in 5-fold gradients, and 250 nL of 100× final concentration compounds were transferred to destination plate 3573 using an Echo 550 liquid handler. A 2.5× final concentration kinase solution was prepared in 1× Kinase Buffer. Then, 10 µL of the 2.5× kinase solution was added to both compound wells and positive control wells, while 10 µL of 1× Kinase Buffer was added to negative control wells. The plate was centrifuged at 1000 rpm for 30 seconds, mixed by orbital shaking, and incubated at room temperature for 10 minutes. A 5/3× final concentration mixture of ATP and Kinase Substrate 25 was prepared in 1× Kinase Buffer. The reaction was initiated by adding 15 µL of the 5/3× ATP/substrate mixture. […] Conversion rates were measured using a Caliper EZ Reader. %Inhibition = (Conversion%_max - Conversion%_sample)/(Conversion%_max - Conversion%_min) × 100. Where: Conversion%_sample: Conversion rate reading of test samples; Conversion%_min: Mean value of negative control wells (representing conversion rate without enzyme activity); Conversion%_max: Mean value of positive control wells (representing conversion rate without compound inhibition). […]

Sequence of HPK1 kinase (Q92918 whole entry): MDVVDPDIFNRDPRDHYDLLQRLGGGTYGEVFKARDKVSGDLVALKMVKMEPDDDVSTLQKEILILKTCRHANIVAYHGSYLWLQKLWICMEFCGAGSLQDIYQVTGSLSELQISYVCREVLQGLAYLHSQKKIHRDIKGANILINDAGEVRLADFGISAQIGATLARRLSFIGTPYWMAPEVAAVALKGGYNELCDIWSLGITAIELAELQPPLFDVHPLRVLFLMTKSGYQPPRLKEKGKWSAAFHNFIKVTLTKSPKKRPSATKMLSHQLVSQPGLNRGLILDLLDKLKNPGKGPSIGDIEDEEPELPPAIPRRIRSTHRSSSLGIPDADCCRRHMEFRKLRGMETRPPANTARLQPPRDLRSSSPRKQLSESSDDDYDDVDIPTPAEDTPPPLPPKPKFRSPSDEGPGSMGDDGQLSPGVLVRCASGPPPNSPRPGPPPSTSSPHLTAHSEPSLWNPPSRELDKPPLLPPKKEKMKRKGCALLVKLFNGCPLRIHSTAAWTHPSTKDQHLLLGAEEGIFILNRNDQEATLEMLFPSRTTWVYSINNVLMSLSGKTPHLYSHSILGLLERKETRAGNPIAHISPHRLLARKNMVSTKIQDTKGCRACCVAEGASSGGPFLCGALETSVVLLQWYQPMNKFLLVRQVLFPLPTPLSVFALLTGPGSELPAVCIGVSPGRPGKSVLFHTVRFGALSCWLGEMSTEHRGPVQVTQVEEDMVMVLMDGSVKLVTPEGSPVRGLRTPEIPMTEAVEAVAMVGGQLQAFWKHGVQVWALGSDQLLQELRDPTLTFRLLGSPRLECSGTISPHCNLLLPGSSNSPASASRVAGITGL

For CNC(=O)c1ccccc1Nc1cc(Nc2cc3c(cc2OC)N2CCN(C4CCN(C)CC4)C[C@H]2CO3)ncc1C(F)(F)F [Compound D2S], the IC50 (HPK1 kinase; Table 4, read-out: HPK1 (IC50)) was less than 0.03 µM.
CNC(=O)c1ccccc1Nc1cc(Nc2cc3c(cc2OC)N2CCN(C4CN(C)C4)C[C@H]2CO3)ncc1C(F)(F)F [Compound D4S] showed an IC50 (HPK1 kinase; Table 4, read-out: HPK1 (IC50)) of less than 0.02 µM.
CNC(=O)c1ccccc1Nc1cc(Nc2cc3c(cc2OC)N2CCN(C4CCN(C)CC4)C[C@@H]2CO3)ncc1C(F)(F)F [Compound D2R] was tested, and the IC50 (HPK1 kinase) was less than 0.03 µM.
COc1cc2c(cc1Nc1ncc(Cl)c(Nc3ccccc3S(=O)(=O)C(C)C)n1)OC[C@@H]1CN(C3CCOCC3)CCN21 [Compound C1S] gave an IC50 (AXL; Table 3, read-out: AXL (IC50)) of less than 0.03 µM.
COc1cc2c(cc1Nc1ncc(Cl)c(Nc3ccccc3S(=O)(=O)C(C)C)n1)OC[C@@H]1CN(C3CCN(C)CC3)CCN21 [Compound C2S] was tested, and the IC50 (AXL) was less than 0.03 µM.
